This is an account of results in US7629368B2, “Nitroderivatives as drugs for diseases having an inflammatory basis” (Nicox S.A., priority 2000, dated 2009).

Data set [1] deals with Human adenocarcinoma (HT29) cells. Nature of the data set: Antiproliferative activity in cancerous cells, cellular growth by haemocytometer. It is filed as cell-based. Particulars: 96 hours, controls = 100, read-out: Proliferation %. As for the experimental part: Determination of the Antiproliferative Activity of the Compounds of the Invention in Cancerous Cells.
Human adenocarcinoma (HT29) cells taken from colon affected by cancerous process were transferred into plates with 24 wells containing a cellular culture medium formed by 10% of foetal bovine serum, penicillin (50 U/ml), streptomycin ([…]) and PEG 400 (polyethylenglycol). After 24 hours a part of the plates is inoculated with the tested compounds dissolved in the carrier (PEG 400). 96 hours after the inoculation of the compounds the cellular growth was measured by haemocytometer. The results, reported in Table 2, are expressed as percentage of the cellular proliferation with respect to the controls.

For data set [2], the system named is PNT1A human epithelial cells of prostate cancer. Briefly: Antiproliferative activity, MTT, prostate cancer line PNT1A. The class given is cell-based. Particulars: 96 h, 4 days, vs DMSO 1%, read-out: Inhibition of the proliferative activity (%); for inhibition at 100 µM: 10^-4 M; for inhibition at 10 µM: 10^-5 M; for inhibition at 1 µM: 10^-6 M. As for the experimental part:
(§1) Determination of the Antiproliferative Activity of the Compounds of the Invention in Cancerous Epithelial Cells of Bladder and Prostate.
(§2) The experiment was carried out by using three human epithelial cellular lines of the prostate cancer (PNT1A; LLNCaP; PC3) and three human epithelial cellular lines of the bladder cancer (T24; 647V; 1207), the various types of cellular lines are identified on the basis of the characteristics, in particular of the aggressiveness, of the cancerous process.
(§3) The cancerous cells are sown, with an initial concentration of 20,000 cells/cm^2, in plates having 96 wells with a cellular culture medium RPMI added with foetal bovine serum 5% and L-Glutamine 1%. Solutions in dimethylsulphoxide of the tested compounds at three different concentrations (10^−6 M; 10^−5M; 10^−4M) or the carrier (DMSO 1%) are added to the culture medium. 4 days after the treatment the cellular growth was measured by the method with MTT (3-[4,5-dimethylthiazol-2-yl]-2,5-diphenyltetrazolium bromide) de-scribed by Turner in: Turner T., Chen P., Goodly L. J., Wells A. Clin. Exp. Metastasis 1996, 14, 409-418. The results, reported in Table 3, are expressed as inhibition percentage of the cellular proliferation determined by measuring the cellular proliferation in the cellular cultures treated with the tested compounds with respect to that measured in cellular cultures treated with dimethylsulphoxide 1%.

The test system of data set [3] is LNCaP human epithelial cells of prostate cancer. Briefly: Antiproliferative activity, MTT, prostate cancer line LNCaP. Particulars: 96 h, 4 days, vs DMSO 1%, read-out: Inhibition of the proliferative activity (%); for inhibition at 100 µM: 10^-4 M; for inhibition at 10 µM: 10^-5 M; for inhibition at 1 µM: 10^-6 M. It is filed as cell-based. As to the method:
as §1, §2, §3

In data set [4] the test system is PC3 human epithelial cells of prostate cancer. Nature of the data set: Antiproliferative activity, MTT, prostate cancer line PC3. The class given is cell-based. The note with it: Epithelial cell, 96 h, 4 days, vs DMSO 1%, read-out: Inhibition of the proliferative activity (%); for inhibition at 100 µM: 10^-4 M; for inhibition at 10 µM: 10^-5 M; for inhibition at 1 µM: 10^-6 M. As to the method: as §1, §2, §3

The subject of data set [5] is T24 human epithelial cells of bladder cancer. Nature of the data set: Antiproliferative activity, MTT, bladder cancer line T24. The class given is cell-based. Particulars: Epithelial cell, 96 h, 4 days, vs DMSO 1%, read-out: Inhibition of the proliferative activity (%); for inhibition at 100 µM: 10^-4 M; for inhibition at 10 µM: 10^-5 M; for inhibition at 1 µM: 10^-6 M. As to the method: as §1, §2, §3

The test system of data set [6] is 647V human epithelial cells of bladder cancer. Nature of the data set: Antiproliferative activity, MTT, bladder cancer line 647V. The class given is cell-based. Particulars: 96 h, 4 days, vs DMSO 1%, read-out: Inhibition of the proliferative activity (%); for inhibition at 100 µM: 10^-4 M; for inhibition at 10 µM: 10^-5 M; for inhibition at 1 µM: 10^-6 M. As for the experimental part:
as §1, §2, §3

Data set [7] has as its system 1207 human epithelial cells of bladder cancer. Briefly: Antiproliferative activity, MTT, bladder cancer line 1207. It is filed as cell-based. The note with it: Epithelial cell, 96 h, 4 days, vs DMSO 1%, read-out: Inhibition of the proliferative activity (%); for inhibition at 100 µM: 10^-4 M; for inhibition at 10 µM: 10^-5 M; for inhibition at 1 µM: 10^-6 M. As for the experimental part:
as §1, §2, §3

Data set [8] concerns human epithelial cellular lines of the prostate cancer and of the bladder cancer. Nature of the data set: Antiproliferative activity in prostate and bladder cancer lines, summary in words. It is filed as cell-based. As to the method:
as §2, §3
The compound of Ex. 7, reported in the Table with the simplified denomination of nitrooxybutyl ester of the aspirin der. with ferulic ac. is active, at 10^−5 concentrations, in prostate tumours as shown by the results obtained on the cellular lines LNCaP and PC3.

Data set [9] deals with liver injury induced by concanavalin A. Nature of the data set: Protection from liver injury induced by concanavalin A. The note with it: ip; plasmatic glutamic-pyruvic transaminase vs treated control group (=100); 200 mg/kg intraperitoneal; 8 hours after concanavalin A 0.3 mg/rat i.v. The class given is in vivo. The text has this:
Determination of the capability of the compounds of the invention to protect the animals from the liver injury induced by concanavalin A.
The model in vivo used in the present example has been described in Tiegs G, Hentshel J, A Wendel. A T cell-dependent experimental liver injury in mice induced by Concanavalin A. J. Clin. Invest. 1992; 90:196-203.
The animals ([…] of Swiss stock weighing about 20 g) are divided in groups of at least No. 10 animals for group.
The animals receive concanavalin and solvent (treated control group), solvent (polyethylene glycol 400-untreated control group), concanavalin and tested compound dissolved in the solvent (treated groups).
Rats are treated intravenously with concanavalin A (0.3 mg/rat), and after 5 minutes they receive by intraperitoneal injection the tested compounds, at the doses reported in Table 1, dissolved in polyethylenglycol 400.
Eight hours after the concanavalin A injection all the animals were sacrificed and the blood collected and examined. The data, reported in Table 1, are expressed as value of the plasmatic glutamic-pyruvic transaminase percentage of the animals treated with the tested compound with respect to the animals of the treated control group.

Take `CC(=O)Oc1ccccc1C(=O)Oc1ccc(CO[N+](=O)[O-])cc1` [Ex. 6, 2-(acetyloxy)benzoic Acid 4-(nitrooxymethyl)phenyl ester]: the melting point was 86 to 88 °C. The activity at 10 µM in data set [1] (HT-29, 10 μM) was 0%.
`COc1cc(/C=C/C(=O)OCCCCO[N+](=O)[O-])ccc1OC(=O)c1ccccc1OC(C)=O` [Ex. 7, trans-3-[4-[2-(acetyloxy)benzoyloxy]-3-methoxyphenyl]-2-propenoic acid 4-(nitrooxy)butyl ester]: in data set [1] (HT-29, 300 μM), the activity at 300 µM worked out at 50%. The inhibition at 100 µM is 72% in [2]; 81% in data set [3]; 69% in data set [4]; 55% in [5]; 50% in [6]; 82% in [7]. Besides, the inhibition at 10 µM in [2] was 0%; in [3], 47%; in data set [4], 30%; in [5] it was 0%; in [6], 0%; in data set [7], 24%. In addition, the inhibition at 1 µM in data set [2] was found to be 0%; in [3], 20%; in [4], 1%; in data set [5], 2%; in data set [6], 0%; in data set [7], 4%. In addition, the “activity in prostate tumours (in words)” value in data set [8] (10^-5 concentrations, cellular lines LNCaP and PC3) is given as “active”.
As to `CC1=C(CC(=O)OCCCCO[N+](=O)[O-])c2cc(F)ccc2/C1=C\c1ccc([S+](C)[O-])cc1` (stereo not shown) [Ex. 18], the response vs control in vivo at 200 mg/kg in data set [9] amounted to 18%. Also, the activity at 50 µM in [1] (HT-29, 50 μM) was 0%. The inhibition at 100 µM in data set [2] was 81%; in data set [3], 88%; in data set [4] it was 74%; in data set [5], 93%; in data set [6] it was 92%; in [7], 88%. The inhibition at 10 µM came to 38% in [2]; 74% in data set [3]; 68% in data set [4]; 82% in [5]; 80% in [6]; 74% in data set [7]. For the same molecule, the inhibition at 1 µM amounted to 3% in [2]; 17% in data set [3]; 5% in [4]; 0% in data set [5]; 9% in data set [6]; 0% in data set [7]. In [8] (10^-5 M, all six prostate and bladder lines), the “inhibitory effect on the proliferation of all kinds of cancerous cells examined (in words)” value is “strong inhibitory effect”.
